Data taken from patent US8846739B2, “TGR5 agonists” (Exelixis Patent Company LLC, priority 2009, dated 2014).

Assays:
h-TGR5 = target: T1, h-TGR5 (Homo sapiens, UniProt Q8TDU6); assay: TGR5 cAMP Assay using Cisbio cAMP Dynamic 2 htrf assay kit; format: cell-based; conditions: hTGR5CRE-luc HEK 293 cells
T1 sequence (Q8TDU6 1-330): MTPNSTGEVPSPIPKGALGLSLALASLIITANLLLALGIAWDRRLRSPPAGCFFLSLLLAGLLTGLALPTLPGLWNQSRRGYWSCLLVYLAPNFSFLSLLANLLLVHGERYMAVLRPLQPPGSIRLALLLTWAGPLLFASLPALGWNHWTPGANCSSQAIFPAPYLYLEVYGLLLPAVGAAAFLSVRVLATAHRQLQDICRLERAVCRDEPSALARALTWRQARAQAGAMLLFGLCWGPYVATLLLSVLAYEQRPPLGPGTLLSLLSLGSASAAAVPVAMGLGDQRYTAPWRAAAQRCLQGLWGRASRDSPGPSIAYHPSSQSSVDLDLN

human TGR5 (h-TGR5) = target: T2, human TGR5 (h-TGR5) (Homo sapiens, UniProt Q8TDU6); assay: TGR5/CRE-Luciferase Assay; format: cell-based; conditions: HEK 293 hTGR5/CRE-Luc cells, 6 hours incubation, read-out: CRE-Luc Agonist (EC50)
T2 sequence (Q8TDU6 1-330): T1 sequence (Q8TDU6 1-330)
Procedure, shortened: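 HEK 293 CRE-Luciferase cells stably expressing the receptor, plated in DMEM 18-20 h before assay, then exposed to serially diluted compounds (DMEM with 5% DMSO) for 6 h. Luciferase read-out after lysis; EC50 from dose-response.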

| SMILES | EC50 (h-TGR5) | EC50 (human TGR5 (h-TGR5)) |
| --- | --- | --- |
| COc1cc(C(C)(C)c2cnc(CCc3c(F)cc(C(=O)NCC[N+](C)(C)C)cc3Cl)n2-c2ccc(F)cc2)ccc1Cl [Example 1f, 2-{[(3-chloro-4-{2-[5-{1-[4-chloro-3-(methyloxy)phenyl]-1-methylethyl}-1-(4-fluorophenyl)-1H-imidazol-2-yl]ethyl}-5-fluorophenyl)carbonyl]amino}-N,N,N-trimethylethanaminium] | < 100 nM | < 100 nM |
| CC[N+](CC)(CC)CCCNC(=O)NS(=O)(=O)c1cc(F)c(CSc2ncc(C(C)(C)c3ccc(Cl)c(OC)c3)n2-c2ccc(F)cc2)c(F)c1 [Example 8, 3-(3-(4-((5-(2-(4-Chloro-3-methoxyphenyl)propan-2-yl)-1-(4-fluorophenyl)-1H-imidazol-2-ylthio)methyl)-3,5-difluorophenylsulfonyl)ureido)-N,N,N-triethylpropan-1-aminium 2,2,2-trifluoroacetate] | < 100 nM | < 100 nM |
| COc1cc(C(C)(C)c2cnc(SCc3c(F)cc(S(=O)(=O)NCCC[n+]4ccccc4)cc3Cl)n2-c2ccc(F)cc2)ccc1F [Example 9, 1-(3-(3-chloro-5-fluoro-4-((5-(2-(4-fluoro-3-methoxyphenyl)propan-2-yl)-1-(4-fluorophenyl)-1H-imidazol-2-ylthio)methyl)phenylsulfonamido)propyl)pyridinium methanesulfonate] | < 100 nM | < 100 nM |
| COc1cc(C(C)(C)c2cnc(COc3c(F)cc(C(=O)NCC[N+](C)(C)C)cc3Cl)n2-c2ccc(F)cc2)ccc1Cl [Example 1e, 2-({[3-chloro-4-({[5-{1-[4-chloro-3-(methyloxy)phenyl]-1-methylethyl}-1-(4-fluorophenyl)-1H-imidazol-2-yl]methyl}oxy)-5-fluorophenyl]carbonyl}amino)-N,N,N-trimethylethanaminium] | < 100 nM | < 100 nM |
| COc1cc(C(C)(C)c2cnc(SCc3c(F)cc(S(=O)(=O)N(CCC[N+](C)(C)C)CC(=O)O)cc3F)n2-c2ccc(F)cc2)ccc1Cl [Example 12] | < 100 nM | < 100 nM |
| COc1cc(-n2c(C(C)(C)c3ccc(Cl)c(Cl)c3)cnc2SCc2c(F)cc(C(=O)N[C@H]3CCC[N+](C)(C)C3)cc2Cl)ccc1F [Example 2o, (3S)-3-[({3-chloro-4-[({5-[1-(3,4-dichlorophenyl)-1-methylethyl]-1-[4-fluoro-3-(methyloxy)phenyl]-1H-imidazol-2-yl}thio)methyl]-5-fluorophenyl}carbonyl)amino]-1,1-dimethylpiperidinium] | < 100 nM | < 100 nM |

Second part, the molecule after the results:

| EC50 (h-TGR5) | EC50 (human TGR5 (h-TGR5)) | SMILES |
| --- | --- | --- |
| < 100 nM | < 100 nM | COc1cc(C(C)(C)c2cnc(SCc3c(F)cc(S(=O)(=O)N(CCC[N+](C)(C)C)[C@H](C(=O)O)[C@@H](C)O)cc3Cl)n2-c2ccc(F)cc2)ccc1Cl [Compound 14ac, 3-([(1S,2R)-1-carboxy-2-hydroxypropyl]{[3-chloro-4-({[5-{1-[4-chloro-3-(methyloxy)phenyl]-1-methylethyl}-1-(4-fluorophenyl)-1H-imidazol-2-yl]thio}methyl)-5-fluorophenyl]sulfonyl}amino)-N,N,N-trimethylpropan-1-aminium] |
| < 100 nM | < 100 nM | COc1cc(C(C)(C)c2cnc(SCc3c(F)cc(S(=O)(=O)N4CCC[C@H]([N+](C)(C)C)C4)cc3Cl)n2-c2ccc(F)cc2)ccc1Cl [Compound 11h, (3S)-1-{[3-chloro-4-({[5-{1-[4-chloro-3-(methyloxy)phenyl]-1-methylethyl}-1-(4-fluorophenyl)-1H-imidazol-2-yl]thio}methyl)-5-fluorophenyl]sulfonyl}-N,N,N-trimethylpiperidin-3-aminium] |
| < 100 nM | < 100 nM | COc1cc(C(C)(C)c2cnc(SCc3c(F)cc(S(=O)(=O)NC4CC[N+](C)(C)CC4)cc3F)n2-c2ccc(F)cc2)ccc1Cl [Compound 11b, 4-({[4-({[5-{1-[4-chloro-3-(methyloxy)phenyl]-1-methylethyl}-1-(4-fluorophenyl)-1H-imidazol-2-yl]thio}methyl)-3,5-difluorophenyl]sulfonyl}amino)-1,1-dimethylpiperidinium] |
| < 100 nM | < 100 nM | COc1cc(C(C)(C)c2cnc(SCc3c(F)cc(S(=O)(=O)N(C)CCC[N+](C)(C)C)cc3F)n2-c2ccc(F)cc2)ccc1Cl [Compound 12a, 3-(4-((5-(2-(4-chloro-3-methoxyphenyl)propan-2-yl)-1-(4-fluorophenyl)-1H-imidazol-2-ylthio)methyl)-3,5-difluoro-N-methylphenylsulfonamido)-N,N,N-trimethylpropan-1-aminium 2,2,2-trifluoroacetate] |
| < 100 nM | < 100 nM | COc1cc(C(C)(C)c2cnc(SCc3c(F)cc(S(=O)(=O)N(CCC[N+](C)(C)C)[C@H](C)C(=O)O)cc3Cl)n2-c2ccc(F)cc2)ccc1Cl [Compound 14y, 3-([(1R)-1-carboxyethyl]{[3-chloro-4-({[5-{1-[4-chloro-3-(methyloxy)phenyl]-1-methylethyl}-1-(4-fluorophenyl)-1H-imidazol-2-yl]thio}methyl)-5-fluorophenyl]sulfonyl}amino)-N,N,N-trimethylpropan-1-aminium] |
| < 100 nM | < 100 nM | COc1cc(C(C)(C)c2cnc(SCc3c(F)cc(S(=O)(=O)N[C@H]4CCC[N+](C)(C)C4)cc3Cl)n2-c2ccc(F)cc2)ccc1Cl [Compound 11a, (3S)-3-({[3-chloro-4-({[5-{1-[4-chloro-3-(methyloxy)phenyl]-1-methylethyl}-1-(4-fluorophenyl)-1H-imidazol-2-yl]thio}methyl)-5-fluorophenyl]sulfonyl}amino)-1,1-dimethylpiperidinium] |
| < 100 nM | < 100 nM | COc1cc(C(C)(C)c2cnc(SCc3c(F)cc(S(=O)(=O)N[C@H](CCCC[N+](C)(C)C)C(=O)O)cc3Cl)n2-c2ccc(F)cc2)ccc1Cl [Compound 17i, (R)-5-carboxy-5-(3-chloro-4-((5-(2-(4-chloro-3-methoxyphenyl)propan-2-yl)-1-(4-fluorophenyl)-1H-imidazol-2-ylthio)methyl)-5-fluorophenylsulfonamido)-N,N,N-trimethylpentan-1-aminium 2,2,2-trifluoroacetate] |
| < 100 nM | < 100 nM | COC(=O)C(C)(C)N(CCC[N+](C)(C)C)S(=O)(=O)c1cc(F)c(CSc2ncc(C(C)(C)c3ccc(Cl)c(OC)c3)n2-c2ccc(F)cc2)c(F)c1 [Compound 14af, 3-({[4-({[5-{1-[4-chloro-3-(methyloxy)phenyl]-1-methylethyl}-1-(4-fluorophenyl)-1H-imidazol-2-yl]thio}methyl)-3,5-difluorophenyl]sulfonyl}[1,1-dlmethyl-2-(methyloxy)-2-oxoethyl]amino)-N,N,N-trimethylpropan-1-aminium] |
| < 100 nM | < 100 nM | COc1cc(C(C)(C)c2cnc(SCc3c(F)cc(S(=O)(=O)N(CCC[N+](C)(C)C)CCC(=O)O)cc3Cl)n2-c2ccc(F)cc2)ccc1Cl [Compound 14u, 3-[(2-carboxyethyl){[3-chloro-4-({[5-{1-[4-chloro-3-(methyloxy)phenyl]-1-methylethyl}-1-(4-fluorophenyl)-1H-imidazol-2-yl]thio}methyl)-5-fluorophenyl)sulfonyl}amino]-N,N,N-trimethylpropan-1-aminium] |
